How the values were obtained:
[1] = molecular target: T1, N-formylated peptide receptor on U937 cells (Homo sapiens, UniProt P21462); experiment: fMet-Leu-[3H]Phe-binding assay on U937 cells; conditions: U937 cells incubated with cytochalasin B
T1 sequence (P21462 1-350): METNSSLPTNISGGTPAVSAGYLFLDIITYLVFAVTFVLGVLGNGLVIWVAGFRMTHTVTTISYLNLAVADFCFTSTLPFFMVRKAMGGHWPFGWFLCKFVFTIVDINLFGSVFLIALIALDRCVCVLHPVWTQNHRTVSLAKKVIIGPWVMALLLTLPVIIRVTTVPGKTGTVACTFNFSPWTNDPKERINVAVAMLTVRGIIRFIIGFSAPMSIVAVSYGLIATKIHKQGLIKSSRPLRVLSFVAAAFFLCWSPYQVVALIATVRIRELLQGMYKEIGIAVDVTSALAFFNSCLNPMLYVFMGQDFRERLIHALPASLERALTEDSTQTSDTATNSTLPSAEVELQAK

U937 cells = experiment: Chemotaxis of U937 cells, modified Boyden chambers; format: cell-based, human; conditions: U937 cells cultured 48 h with lymphokines; Fig. 4
[2] = system: human peripheral blood monocytes; conditions: ref M. C. Pike and R. Snyderman. Unpublished observation; cited from earlier work

Compound | effect on amount of fMet-Leu-[3H]Phe bound [1] | relative chemotactic potency (U937 cells) | potency for human monocyte chemotaxis relative to fMet-Leu-Phe [2]
C=C1[C@@H](C)[C@H]2[C@H](Cc3ccccc3)NC(=O)[C@]23OC(=O)/C=C/[C@H](O)CCC[C@@H](C)C/C=C/[C@H]3[C@@H]1O [cytochalasin B] | did not affect |  | 
N-formyl-norleucyl-leucyl-phenylalanine [fNle-Leu-Phe] |  | approximately equipotent | less than that of fMet-Leu-Phe
fMet-Met-Met [N-formyl-methionyl-methionyl-methionine] |  | approximately equipotent | less than that of fMet-Leu-Phe
